Laboratory results reported in US11903999B2, “Combination of AS1411 and SAPC-DOPS for the treatment of glioblastoma multiforme” (University of Cincinnati, priority 2017, dated 2024).

Legend:
U87-MG cells [1] = assay: Methuosis-like vacuolization by microscopy; assay type: cell-based; conditions: 15 μM AS1411 for 72 hrs
Experimental: FIG. 5. A) AS1411 induces methuosis-like vacuolization in U87-MG Cells, untreated U87-MG cells; B) […] cells treated with 10 μM MIPP for 24 hrs; C) U87-MG cells treated with 15 μM AS1411 for 72 hrs. D) U87-MG cells treated with 15 μM AS1411 for 192 hrs. E) Quantification of number of cells with >5 vacuoles.
U87-MG cells were grown to approximately 50% confluency in standard flat bottom 6 well cell culture plates. The cells were then treated with either 10 μM MIPP (a compound previously shown to induce methuosis) or 15 μM AS1411 for 72 hrs. Photos were taken comparing the two treatment wells with untreated control cells, using a microscope with camera.

U87-MG cells [2] = conditions: cited from earlier work
[3] = tested on: Caspase-3 in U87-MG cells; assay: Caspase-3 levels as a measure of apoptosis (EnzCheck Caspase-3 Assay Kit); assay type: cell-based; conditions: 15 μM AS1411 for 72 hrs vs 100 μM TMZ for 48 hrs
Experimental: Caspase activity was measured with a […]. Caspase levels were normalized to total cellular protein with BCA protein assay. Error bars show mean +/−SD.
U87-MG cells were seeded onto standard 60 mm cell culture dishes at 50% confluency. After 24 hrs, 15 μM of AS1411 in DMEM and 100 μM of temozolomide (TMZ) in DMEM were added to each dish. Cells were harvested at 72 hrs and 48 hrs respectively and analyzed using the EnzCheck Caspase-3 Assay Kit from Molecular Probes utilizing the Z-DEVD-AMC substrate (incubated for 30 minutes). Fluorescence excitation/emission: 340/440 nm) was measured with a standard fluorometer.

U87-MG cells [4] = assay: Cell surface PS (Annexin V-FITC) and propidium iodide by flow cytometry; assay type: cell-based; conditions: 6 μM AS1411
Experimental: FIG. 3. […] Error bars show mean +/−SD with **p<0.02 by Student's t-test when compared to control (untreated) cells.
U87-MG cells were seeded onto standard 60 mm cell culture dishes at ˜50% confluency. After 24 hrs, 6 μM of AS1411 in DMEM was added to each dish at 24, 48, and 72 hour time points. Cells were then stained with Annexin V-FITC using a standard staining protocol and evaluated for surface PS levels using flow cytometry.

non-GBM tumor cell lines = conditions: cited from earlier work

Question: For “5′-d(GGTGGTGGTGGTTGTGGTGGTGGTGG)-3′ [AS1411]”, which “morphologic changes, vacuolization” value (U87-MG cells [1]) is on record?
Answer: The value was “induces morphologic changes including vacuolization”.

Question: And the IC50 (U87-MG cells [2])?
Answer: The IC50 was 10 µM.

Question: And the caspase activity [3]?
Answer: The caspase activity was “does not increase caspase activity as much as the apoptotic drug TMZ”.

Question: And the “propidium iodide (PI) positive (dead) cells” value (U87-MG cells [4])?
Answer: Its value is “without increasing PI”.

Question: And the “surface PS (Annexin V-FITC)” value (U87-MG cells [4]; 24, 48, 72 hrs)?
Answer: The value was “increases surface PS”.

Question: What about the IC50 (non-GBM tumor cell lines) of the same substance?
Answer: The IC50 was 1 µM.
